This data set in a line: Water solubility of DTEA HCl (pure and crude) at different temperatures. The following applies: FIG. 2. The class given is physicochemical. An excerpt: FIG. 2 graphically represents the water solubility of pure DTEA HCl.

As for `CCCCCCCCCCSCCN.Cl` [DTEA HCl, n-decylthioethylamine HCl], under “15 wt % solution in water”, the solids formation result is listed as “forms solids well above RT”. The solubility in water result by setting is: (at 32° F.) “essentially insoluble”; (at 56° F., no LTS) “less than 1 wt %”; (at 67° F., no LTS) 11 wt %.
